Test results from patent US5760235A, “Anticoagulant peptide derivatives and pharmaceutical compositions containing the same as well as a process for preparation thereof” (Gyogyszerkutato Intezet Kft., priority 1992, dated 1998).

What was measured:
native whole human blood = experiment: In vitro whole blood clotting time (WBCT), native human blood; type: biochemical; parameters: unit not given here
Method: (§1) The antithrombin activity of the compounds of general formula (I) was determined by the usual method [Bagdy et al.: Thromb Haemostas 67, 325-330 (1992)] by measuring whole blood clotting time (WBCT), thrombin time (TT) and activated partial thromboplastin time (APTT). The in vitro activity of some compounds of the invention assayed on native human blood (non-anticoagulated clotting) (WBCT) and on citrated blood plasma (TT and APTT) is presented in Table 1.
(§2) ^2 WBCT = whole blood clotting time, TT = thrombin time, APTT =
(§3) activated partial thromboplastin time parameter. The figures represent
(§4) concentrations of the compounds required to double the clotting time of
(§5) native whole human blood or of citrated blood plasma.

citrated blood plasma [1] = experiment: In vitro thrombin time (TT), citrated blood plasma; type: biochemical, human; parameters: unit not given here
Method: as §1, §2, §3, §4, §5

citrated blood plasma [2] = experiment: In vitro activated partial thromboplastin time (APTT), citrated blood plasma; type: biochemical, human; parameters: unit not given here
Method: as §1, §2, §3, §4, §5

whole blood clotting = experiment: In vivo antithrombin effect in rabbits: whole blood clotting time (WBCT)
Method: (§6) The in vivo antithrombin effect of the compounds of general formula (I) was treated in rabbits by a known method [Bagdy et al: Thromb Haemost 67, 357-365 (1992)]. The compounds were applied in a dose of 0.5-3.0 mg/kg s.c. and 5-15 mg/kg p.o. The effect was already detectable 15-30 minutes after drug administration, peak effect was attained after 90-120 minutes but the therapeutic effect was dose dependently maintained during 3 to longer than 5 hours.
(§7) The in vivo antithrombin effect of 3-cyclohexyl-D-lactyl-L-prolyl-L-arginine aldehyde hemisulfate (Example 7.) is presented in detail in Tables 2 and 3. The compound was administered in doses of 10 and 15 mg/kg, resp., p.o. and the blood samples taken from the ear-vein of the animals were assayed in every 30 minutes. The whole blood clotting time (WBCT) and the inhibition of whole blood platelet aggregation induced by thrombin (IWBA) were determined. Furthermore the citrated plasma thrombin time (TT) of the blood sample and the activated partial thromboplastin time (APTT) were measured, too. The WBCT and APTT values are presented in Table 2 and the TT and IWBA values in Table 3.

citrated plasma [3] = experiment: In vivo antithrombin effect in rabbits: activated partial thromboplastin time (APTT)
Method: as §6, §7

citrated plasma [4] = experiment: In vivo antithrombin effect in rabbits: citrated plasma thrombin time (TT)
Method: as §6, §7

[5] = tested on: whole blood platelet aggregation induced by thrombin; experiment: In vivo antithrombin effect in rabbits: inhibition of whole blood platelet aggregation induced by thrombin (IWBA)
Method: as §6, §7

[6] = tested on: fibrinolysis induced by tissue plasminogen activator; experiment: Fibrinolysis induced by tissue plasminogen activator, thromboelastogram; type: biochemical
Excerpt: The compounds of the general formula (I) inhibit clot formation without interfering with the natural lysis of blood clots in the body, e.g. fibrinolysis. […] Thromboelastography. In: Bang N. U., F. K. Beller, E. Deutsch, E. F. Mamman eds. Thrombosis and Bleeding Disorders. Theory and Methods. Academic Press, London, 1971: 70-76].

N=C(N)NCCC[C@@H](C=O)NC(=O)[C@H]1CCCN1C(=O)C(O)c1cccc2ccccc12.N=C(N)NCCC[C@@H](C=O)NC(=O)[C@H]1CCCN1C(=O)C(O)c1cccc2ccccc12.O=S(=O)(O)O (stereo partly drawn) [Example 14, D-2-(1-Naphthyl)-2-hydroxyacetyl-L-prolyl-L-arginine aldehyde hemisulfate]
WBCT: concentration required to double the clotting time (native whole human blood): 1.04 | TT: concentration required to double the clotting time (citrated blood plasma [1]): 0.150 | APTT: concentration required to double the clotting time (citrated blood plasma [2]): 0.52

N=C(N)NCCC[C@@H](C=O)NC(=O)[C@@H]1CCCN1C(=O)[C@@H]1OCCc2ccccc21.N=C(N)NCCC[C@@H](C=O)NC(=O)[C@@H]1CCCN1C(=O)[C@@H]1OCCc2ccccc21.O=S(=O)(O)O [Example 1, D-Isochroman-1-carbonyl-L-prolyl-L-arginine aldehyde hemisulfate]
WBCT: concentration required to double the clotting time (native whole human blood): 1.55 | TT: concentration required to double the clotting time (citrated blood plasma [1]): 0.132 | APTT: concentration required to double the clotting time (citrated blood plasma [2]): 0.60

N=C(N)NCCC[C@@H](C=O)NC(=O)[C@@H]1CCCN1C(=O)[C@H](O)CC1CCCCC1.N=C(N)NCCC[C@@H](C=O)NC(=O)[C@@H]1CCCN1C(=O)[C@H](O)CC1CCCCC1.O=S(=O)(O)O [Example 7, 3-Cyclohexyl-D-lactyl-L-prolyl-L-arginine aldehyde hemisulfate]
WBCT: concentration required to double the clotting time (native whole human blood): 0.32 | TT: concentration required to double the clotting time (citrated blood plasma [1]): 0.072 | APTT: concentration required to double the clotting time (citrated blood plasma [2]): 0.20 | WBCT (whole blood clotting; 10 mg/kg p.o., time 0 min): 13.2 ± 1.1 min | WBCT (whole blood clotting; 10 mg/kg p.o., time 30 min): 17.7 ± 1.6 min | WBCT (whole blood clotting; 10 mg/kg p.o., time 60 min): 23.6 ± 1.9 min | WBCT (whole blood clotting; 10 mg/kg p.o., time 90 min): 21.2 ± 2.9 min | WBCT (whole blood clotting; 10 mg/kg p.o., time 120 min): 18.8 ± 1.0 min | WBCT (whole blood clotting; 10 mg/kg p.o., time 150 min): 19.2 ± 1.1 min | WBCT (whole blood clotting; 10 mg/kg p.o., time 180 min): 18.4 ± 1.5 min | WBCT (whole blood clotting; 10 mg/kg p.o., time 210 min): 17.2 ± 2.3 min | WBCT (whole blood clotting; 10 mg/kg p.o., time 240 min): 15.8 ± 1.7 min | WBCT (whole blood clotting; 10 mg/kg p.o., time 270 min): 16.2 ± 2.1 min | WBCT (whole blood clotting; 10 mg/kg p.o., time 300 min): 13.5 ± 0.9 min | WBCT (whole blood clotting; 15 mg/kg p.o., time 0 min): 14.6 ± 0.4 min | WBCT (whole blood clotting; 15 mg/kg p.o., time 30 min): 24.2 ± 4.7 min | WBCT (whole blood clotting; 15 mg/kg p.o., time 60 min): 29.4 ± 4.5 min | WBCT (whole blood clotting; 15 mg/kg p.o., time 90 min): 33.0 ± 5.9 min | WBCT (whole blood clotting; 15 mg/kg p.o., time 120 min): 34.4 ± 4.4 min | WBCT (whole blood clotting; 15 mg/kg p.o., time 150 min): 27.2 ± 3.6 min | WBCT (whole blood clotting; 15 mg/kg p.o., time 180 min): 29.5 ± 2.7 min | WBCT (whole blood clotting; 15 mg/kg p.o., time 210 min): 34.0 ± 5.9 min | WBCT (whole blood clotting; 15 mg/kg p.o., time 240 min): 33.7 ± 6.5 min | WBCT (whole blood clotting; 15 mg/kg p.o., time 270 min): 26.0 ± 1.2 min | WBCT (whole blood clotting; 15 mg/kg p.o., time 300 min): 23.6 ± 3.3 min | APTT (citrated plasma [3]; 10 mg/kg p.o., time 0 min): 27.7 ± 1.2 s | APTT (citrated plasma [3]; 10 mg/kg p.o., time 30 min): 58.9 ± 9.0 s | APTT (citrated plasma [3]; 10 mg/kg p.o., time 60 min): 77.6 ± 14.6 s | APTT (citrated plasma [3]; 10 mg/kg p.o., time 90 min): 65.1 ± 8.4 s | APTT (citrated plasma [3]; 10 mg/kg p.o., time 120 min): 55.1 ± 11.4 s | APTT (citrated plasma [3]; 10 mg/kg p.o., time 150 min): 52.1 ± 6.6 s | APTT (citrated plasma [3]; 10 mg/kg p.o., time 180 min): 53.8 ± 8.5 s | APTT (citrated plasma [3]; 10 mg/kg p.o., time 210 min): 48.6 ± 3.8 s | APTT (citrated plasma [3]; 10 mg/kg p.o., time 240 min): 47.7 ± 7.4 s | APTT (citrated plasma [3]; 10 mg/kg p.o., time 270 min): 44.4 ± 3.7 s | APTT (citrated plasma [3]; 10 mg/kg p.o., time 300 min): 43.7 ± 5.0 s | APTT (citrated plasma [3]; 15 mg/kg p.o., time 0 min): 32.6 ± 4.6 s | APTT (citrated plasma [3]; 15 mg/kg p.o., time 30 min): 115.0 ± 36.6 s | APTT (citrated plasma [3]; 15 mg/kg p.o., time 60 min): 150.4 ± 30.9 s | APTT (citrated plasma [3]; 15 mg/kg p.o., time 90 min): 170.3 ± 18.5 s | APTT (citrated plasma [3]; 15 mg/kg p.o., time 120 min): 145.6 ± 22.7 s | APTT (citrated plasma [3]; 15 mg/kg p.o., time 150 min): 149.2 ± 22.0 s | APTT (citrated plasma [3]; 15 mg/kg p.o., time 180 min): 169.0 ± 23.0 s | APTT (citrated plasma [3]; 15 mg/kg p.o., time 210 min): 137.7 ± 25.8 s | APTT (citrated plasma [3]; 15 mg/kg p.o., time 240 min): 127.4 ± 25.7 s | APTT (citrated plasma [3]; 15 mg/kg p.o., time 270 min): 133.4 ± 24.7 s | APTT (citrated plasma [3]; 15 mg/kg p.o., time 300 min): 92.8 ± 18.4 s | TT (citrated plasma [4]; 10 mg/kg p.o., time 0 min): 18.4 ± 2.1 s | TT (citrated plasma [4]; 10 mg/kg p.o., time 30 min): 317.1 ± 123.0 s | TT (citrated plasma [4]; 10 mg/kg p.o., time 60 min): 416.0 ± 107.2 s | TT (citrated plasma [4]; 10 mg/kg p.o., time 90 min): 444.7 ± 108.6 s | TT (citrated plasma [4]; 10 mg/kg p.o., time 120 min): 264.6 ± 101.3 s | TT (citrated plasma [4]; 10 mg/kg p.o., time 150 min): 201.1 ± 109.9 s | TT (citrated plasma [4]; 10 mg/kg p.o., time 180 min): 182.7 ± 113.6 s | TT (citrated plasma [4]; 10 mg/kg p.o., time 210 min): 123.0 ± 65.3 s | TT (citrated plasma [4]; 10 mg/kg p.o., time 240 min): 141.5 ± 81.3 s | TT (citrated plasma [4]; 10 mg/kg p.o., time 270 min): 65.4 ± 25.7 s | TT (citrated plasma [4]; 10 mg/kg p.o., time 300 min): 41.8 ± 11.4 s | TT (citrated plasma [4]; 15 mg/kg p.o., time 0 min): 18.9 ± 2.1 s | TT (citrated plasma [4]; 15 mg/kg p.o., time 30 min): 371.2 ± 142.3 s | TT (citrated plasma [4]; 15 mg/kg p.o., time 60 min): 528.3 ± 72.9 s | TT (citrated plasma [4]; 15 mg/kg p.o., time 90 min): 578.8 ± 21.5 s | TT (citrated plasma [4]; 15 mg/kg p.o., time 120 min): > 600.0 ± 0 s | TT (citrated plasma [4]; 15 mg/kg p.o., time 150 min): 549.6 ± 34.0 s | TT (citrated plasma [4]; 15 mg/kg p.o., time 180 min): 380.7 ± 116.0 s | TT (citrated plasma [4]; 15 mg/kg p.o., time 210 min): 342.1 ± 121.2 s | TT (citrated plasma [4]; 15 mg/kg p.o., time 240 min): 340.9 ± 137.0 s | TT (citrated plasma [4]; 15 mg/kg p.o., time 270 min): 376.4 ± 153.0 s | TT (citrated plasma [4]; 15 mg/kg p.o., time 300 min): 261.0 ± 140.8 s | IWBA ([5]; 10 mg/kg p.o., time 30 min): 89.4 ± 7.6% | IWBA ([5]; 10 mg/kg p.o., time 60 min): 95.8 ± 6.9% | IWBA ([5]; 10 mg/kg p.o., time 90 min): 81.6 ± 8.2% | IWBA ([5]; 10 mg/kg p.o., time 120 min): 94.0 ± 3.2% | IWBA ([5]; 10 mg/kg p.o., time 150 min): 71.4 ± 13.8% | IWBA ([5]; 10 mg/kg p.o., time 180 min): 72.4 ± 19.2% | IWBA ([5]; 10 mg/kg p.o., time 210 min): 54.4 ± 21.0% | IWBA ([5]; 10 mg/kg p.o., time 240 min): 50.6 ± 17.7% | IWBA ([5]; 10 mg/kg p.o., time 270 min): 35.2 ± 17.3% | IWBA ([5]; 10 mg/kg p.o., time 300 min): 48.2 ± 16.9% | IWBA ([5]; 15 mg/kg p.o., time 30 min): 81.4% | IWBA ([5]; 15 mg/kg p.o., time 60 min): 97.4% | IWBA ([5]; 15 mg/kg p.o., time 90 min): 100.0 ± 0% | IWBA ([5]; 15 mg/kg p.o., time 120 min): 100.0 ± 0% | IWBA ([5]; 15 mg/kg p.o., time 150 min): 100.0 ± 0% | IWBA ([5]; 15 mg/kg p.o., time 180 min): 100.0 ± 0% | IWBA ([5]; 15 mg/kg p.o., time 210 min): 93.7% | IWBA ([5]; 15 mg/kg p.o., time 240 min): 82.6% | IWBA ([5]; 15 mg/kg p.o., time 270 min): 81.0% | IWBA ([5]; 15 mg/kg p.o., time 300 min): 69.6% | inhibitory effect on fibrinolysis induced by tissue plasminogen activator [6]: only negligible inhibitory effect

N=C(N)NCCC[C@@H](C=O)NC(=O)[C@@H]1CCCN1C(=O)[C@H](O)C(c1ccccc1)c1ccccc1.N=C(N)NCCC[C@@H](C=O)NC(=O)[C@@H]1CCCN1C(=O)[C@H](O)C(c1ccccc1)c1ccccc1.O=S(=O)(O)O [Example 12, 3,3-Diphenyl-D-lactyl-L-prolyl-L-arginine aldehyde hemisulfate]
WBCT: concentration required to double the clotting time (native whole human blood): 0.52 | TT: concentration required to double the clotting time (citrated blood plasma [1]): 0.077 | APTT: concentration required to double the clotting time (citrated blood plasma [2]): 0.12
